How the values were obtained:
Crofton weed = experiment: Needle puncture pathogenic test on slightly wounded leaf of Crofton weed; assay type: in vivo; details: Crofton weed leaf; for Time of Disease spot / Average diameter of spot after 24 h: 50 μg/mL, 25° C., natural light; for Avg. diameter of the spot after 24 h / Time of disease spot to occur: analogs with formula (I) and (II)
Procedure: 3-acetyl-5-sec-butyl-4-hydroxy-3-pyrrolin-2-one analogs were dissolved in a small amount of methanol and diluted with water to a concentration of 5-100 μg/g. A pathogenic test was conducted by placing the toxic liquid on the slightly wounded leaf of Crofton weed with a needle. The test has shown that the pathogenic capability of 3-acetyl-5-sec-butyl-4-hydroxy-3-pyrrolin-2-one analogs with respect to Crofton weed increases with the increase of concentration. The spot diameter caused on the leaf of Crofton weed after 24 hours was 2 mm at 50 μg/g.
3-acetyl-5-sec-butyl-4-hydroxy-3-pyrrolin-2-one analogue (Table 3, compounds 10-57) was dissolved in small amount of methanol. The solution was then diluted with distilled water to a concentration of 50 μg/mL. Methanol solution with same concentration and pure distilled water were used as control of the experiment. A pathogenic test was conducted by placing the toxic liquid on the slightly wounded leaf of Crofton weed with a needle. The experiment was carried out at 25° C. under the natural light and each test was repeated 6 times. It was measure the diameter of the spot after 24 h. […] The size of the side chain also has an effect on their activity.
Fourteen salts of 3-acetyl-5-sec-butyl-4-hydroxy-3-pyrrolin-2-one analogs were dissolved in small amount of methanol and diluted with distilled water to a concentration of 50 μg/mL. Methanol/water mixture was also prepared and used as control. Needle puncture method was used for the test on the small pieces of Crofton weed. Each treatment was repeated six times or more. The test samples were kept under natural light at 25° C. for 24 hours. The diameters of damaged spot of the plant leaves were measured by vernier caliper.

[1] = system: fluorescence of chlorophyll; experiment: Fluorescence of chlorophyll of treated Crofton weed leaves; assay type: biochemical; details: 50 μg/mL, strong light 12 hours
Procedure: (§1) Compounds 10-57 were dissolved in small amount of methanol. The solutions were then diluted with distilled water to a concentration of 50 μg/mL. A mixture of methanol and water in the same ratio as the sample solution was also prepared and used as control in the experiment. The healthy leaves of Crofton weed were washed in water for 30 minutes and then rinsed with distilled water. The clean and tissue dried leaves were placed in petri dish with the back-side of the leaves facing up. Wet filter paper was also placed in the in petri dish for moisture control. Water, methanol and chemical solutions of the analogues were applied to the back-side of each leaf. Test sample was then placed in vacuum chamber at 25° C. for 15 min followed by exposure to the strong light (400 μM m^−2 s^−1) for 12 hours. The leaf sample went through a series of test, and the Hill reaction rate, the electron transfer activity and fluorescence of chlorophyll were measured. Four leaves were used for each treatment and each test was repeated three times.

Hill reaction = Hill reaction activity of treated Crofton weed leaves; assay type: biochemical; details: 50 μg/mL, strong light 12 hours
Procedure: as §1

photosystem II = experiment: PSII oxygen evolution / electron transfer activity of treated Crofton weed leaves; assay type: biochemical; details: 50 μg/mL, strong light 12 hours
Procedure: as §1

| Structure (SMILES) | Time of Disease spot (Crofton weed) | Average diameter of spot after 24 h (Crofton weed) | Fv/Fm [1] | Activity of Hill Reaction (Hill reaction) | PSII Activity of oxygen evolution (photosystem II) | Avg. diameter of the spot after 24 h (Crofton weed) | Time of disease spot to occur (Crofton weed) |
| --- | --- | --- | --- | --- | --- | --- | --- |
| CCC1(C)NC(=O)C(C(C)=O)=C1O (stereo not drawn) [Compound 24] | 16.21 ± 3.55 h | 2.43 ± 0.07 mm | 0.83 | 71.37 uMO2/mgChlh | 43.01 uMO2/mgChlh |  |  |
| CSCCC1NC(=O)C(C(C)=O)=C1O (stereo not drawn) [Compound 41] | 20.8 ± 3.00 h | 2.45 ± 0.24 mm | 0.83 | 59.07 uMO2/mgChlh | 41.32 uMO2/mgChlh |  |  |
| CC(=O)C1=C(O)C(C(C)C)NC1=O (stereo not drawn) [Compound 39] | 16.5 ± 2.15 h | 4.89 ± 0.37 mm | 0.80 | 62.72 uMO2/mgChlh | 33.79 uMO2/mgChlh |  |  |
| CCC(C)C1NC(=O)C(C(=O)CCOc2ccccc2)=C1O (stereo not drawn) [Compound 47] | 21.2 ± 1.88 h | 2.12 ± 0.09 mm | 0.82 | 67.99 uMO2/mgChlh | 49.01 uMO2/mgChlh |  |  |
| CC=CC1NC(=O)C(C(C)=O)=C1O (stereo not drawn) [Compound 21] | 16.5 ± 1.30 h | 2.89 ± 0.14 mm | 0.77 | 62.34 uMO2/mgChlh | 42.25 uMO2/mgChlh |  |  |
| CCCC(C#N)C1NC(=O)C(C(C)=O)=C1O (stereo not drawn) [Compound 38] | 13.6 ± 0.50 h | 9.82 ± 0.02 mm | 0.81 | 64.69 uMO2/mgChlh | 40.41 uMO2/mgChlh |  |  |
| CC(=O)C1=C(O)C(CCC(C)C)NC1=O (stereo not drawn) [Compound 33] | 13.5 ± 0.75 h | 4.17 ± 1.15 mm | 0.79 | 51.94 uMO2/mgChlh | 26.54 uMO2/mgChlh |  |  |
| CCCCCC(C#N)C1NC(=O)C(=C(C)O)C1=O (stereo not drawn) [Compound 54] | 11.30 ± 0.73 h | 8.211 ± 0.101 mm | 0.81 | 43.65 uMO2/mgChlh | 31.98 uMO2/mgChlh |  |  |
| CCC(C)C1NC(=O)C(C(=O)Cc2ccccc2)=C1O (stereo not drawn) [Compound 51] | 15.1 ± 1.82 h | 3.28 ± 1.12 mm | 0.81 | 52.23 uMO2/mgChlh | 32.15 uMO2/mgChlh |  |  |
| CC(=O)C1=C(O)C(C)(C)NC1=O [Compound 22] | 20.0 ± 1.63 h | 1.76 ± 0.24 mm | 0.82 | 56.16 uMO2/mgChlh | 38.05 uMO2/mgChlh |  |  |
| CCC(C)C1NC(=O)C(NCCCCl)=C1O (stereo not drawn) [Compound 8] |  |  | 0.79 | 49.05 uMO2/mgChlh | 24.65 uMO2/mgChlh | 2.53 ± 0.18 mm | 20.0 ± 1.51 h |
| CCC(=O)NC1=C(O)C(C(C)CC)NC1=O (stereo not drawn) [Compound 9] |  |  | 0.83 | 50.12 uMO2/mgChlh | 23.33 uMO2/mgChlh | 2.80 ± 0.33 mm | 21.9 ± 2.00 h |
| CCC(C)C1NC(=O)C(CCc2ccccc2)=C1O (stereo not drawn) [Compound 6] |  |  | 0.81 | 50.04 uMO2/mgChlh | 27.11 uMO2/mgChlh | 2.12 ± 0.08 mm | 21.2 ± 3.85 h |
| CCC1(CC)NC(=O)C(C(C)=O)=C1O [Compound 23] | 18.3 ± 2.17 h | 2.23 ± 0.12 mm | 0.79 | 63.28 uMO2/mgChlh | 38.24 uMO2/mgChlh |  |  |
| CC(=O)C1=C(O)C(C)NC1=O (stereo not drawn) [Compound 11] | 21.5 ± 0 h | 1.80 ± 0.41 mm | 0.82 | 80.00 uMO2/mgChlh | 46.41 uMO2/mgChlh |  |  |
| CCC(C)(C)C1NC(=O)C(C(C)=O)=C1O (stereo not drawn) [Compound 32] | 12.5 ± 3.75 h | 4.82 ± 1.44 mm | 0.82 | 63.42 uMO2/mgChlh | 32.13 uMO2/mgChlh |  |  |
| CCCC1(C)NC(=O)C(C(C)=O)=C1O (stereo not drawn) [Compound 26] | 13.61 ± 1.35 h | 3.31 ± 0.07 mm | 0.82 | 89.15 uMO2/mgChlh | 58.01 uMO2/mgChlh |  |  |
| CC(=O)C1C(=O)NC(C)C1=O (stereo not drawn) [Compound 57] | 20.4 ± 0 h | 1.98 ± 0.51 mm | 0.82 | 63.42 uMO2/mgChlh | 35.13 uMO2/mgChlh |  |  |
| CCC1NC(=O)C(C(C)=O)=C1O (stereo not drawn) [Compound 12] | 15.2 ± 0.35 h | 2.77 ± 0.23 mm | 0.83 | 70.32 uMO2/mgChlh | 34.54 uMO2/mgChlh |  |  |
| CC(=O)C1=C(O)C(CC(=O)O)NC1=O (stereo not drawn) [Compound 34] | 24.0 ± 0.02 h | 1 ± 0.86 mm | 0.81 | 65.73 uMO2/mgChlh | 35.11 uMO2/mgChlh |  |  |
| CC(=O)C1=C(O)C(Cc2ccccc2)NC1=O (stereo not drawn) [Compound 19] | 24 ± 4.00 h | 1.24 ± 0.10 mm | 0.79 | 63.43 uMO2/mgChlh | 40.07 uMO2/mgChlh |  |  |
| CCCC1(CCC)NC(=O)C(C(C)=O)=C1O [Compound 25] | 15.22 ± 2.00 h | 2.44 ± 0.10 mm | 0.82 | 97.55 uMO2/mgChlh | 57.12 uMO2/mgChlh |  |  |
| CCCC1(CC)NC(=O)C(C(C)=O)=C1O (stereo not drawn) [Compound 27] | 14.2 ± 4.15 h | 3.18 ± 0.93 mm | 0.81 | 91.45 uMO2/mgChlh | 53.24 uMO2/mgChlh |  |  |
| CCOC1=C(O)C(C(C)CC)NC1=O (stereo not drawn) [Compound 5] |  |  | 0.82 | 52.31 uMO2/mgChlh | 24.10 uMO2/mgChlh | 2.35 ± 0.14 mm | 20.7 ± 0.75 h |
